Laboratory results as given in US8178077B2, “Drug development target protein and target gene, and method of screening” (Reverse Proteomics Research Institute Co., Ltd., priority 2004, dated 2012).
Blank lines part the entries; values can stand above or below the compound they belong to.

Columns and labels:
[1] = target: T1, FLJ20589 clone-derived protein (human hippocalcin-like protein 1, VILIP-3) (Homo sapiens, UniProt P37235); assay: SEC/MS interaction analysis (size exclusion spin column and mass analysis) with FLJ20589 clone-derived protein; assay type: binding
T1 construct: A human full-length cDNA clone was expressed as a protein with an N-terminal His tag; His tag (N); made in house; host or cells: Escherichia coli BL21star(DE3)pLysS (pDEST17 Gateway expression plasmid)

[2] = target: T2, FLJ39196 clone-derived protein (human neurocalcin δ) (Homo sapiens, UniProt P61601); assay: SEC/MS interaction analysis (size exclusion spin column and mass analysis) with FLJ39196 clone-derived protein; assay type: binding
T2 construct: A human full-length cDNA clone was expressed as a protein with an N-terminal His tag; His tag (N); made in house; host or cells: Escherichia coli BL21star(DE3)pLysS (pDEST17 Gateway expression plasmid)
Excerpt: To analyze the interactions between commonly used drugs and proteins expressed from human full-length cDNA clones while keeping both the proteins and the compounds in non-modified, non-immobilized state, size exclusion chromatography (SEC) and mass analysis were used in combination (FIGS. 1, 2). The specific procedures are shown below.
The compound-protein mixture prepared in step 1 was subjected to chromatography using an SEC column, the compound and the protein were separated by SEC, and the compound that interacted with the bound compound or protein contained in the protein fraction was analyzed using a mass analyzer.
Protein concentrations were measured using BCA Protein Assay (PIERCE), in consideration of the purity calculated by SDS-PAGE.
Mass analysis was performed using LCQ DECA XP (Thermoelectron) or Q-TOFmicro (Micromass), equipped with an ESI probe. The LC pump used was Agilent 1100 (Yokogawa Analytical Systems), and the autosampler used was HTC-PAL (CTC Analytics) equipped with a cooling stacker.
In the SEC method using 384-well spin columns, Unifilter 100 (Whatman), packed with 10 μL (dry volume) of Bio-Gel P6 (BIO-RAD) and swollen with milliQ water, was used as the SEC column. 13.3 μL of a protein-free reference standard or a 25 μM protein standard and 0.7 μL of a multiplied liquid comprising 25 μM of each pharmaceutical compound (5% DMSO aqueous solution) were mixed; 9 μL of this mixture was aliquoted into the SEC spin columns. The SEC spin column was mounted on an acetonitrile-aliquoted 384-well U-bottom plate and centrifuged; the SEC spin column filtrate, which is a protein fraction, was retrieved in 50% acetonitrile. The protein precipitate produced by the acetonitrile was removed via centrifugation and filtration for deproteinization; the resulting filtrate was concentrated by centrifugation and re-dissolved in 10 μL of 50% methanol to obtain a mass analysis sample. The mobile phase supplied to the mass analyzer was 0.1% formic acid/50% methanol solution in the positive ion mode, and 0.1% ammonia/50% methanol solution in the negative ion mode; these mobile phases were used at a flow rate of 40 μL/min. 2-μL of mass analysis samples were injected using an autosampler at 2-minute intervals; the mass spectral intensity of the compound was measured to obtain the spectral intensity of the pharmaceutical compound contained in the SEC spin column filtrate (protein fraction eluted from SEC).

- spectral intensity of the compound in the SEC spin column filtrate (protein fraction) ([1]; protein 0 μM (protein-free reference), compound 1 μM): 188851
- spectral intensity of the compound in the SEC spin column filtrate (protein fraction) ([1]; protein 0 μM (protein-free reference), compound 10 μM): 200579
- spectral intensity of the compound in the SEC spin column filtrate (protein fraction) ([1]; protein 0 μM (protein-free reference), compound 100 μM): 198757
- spectral intensity of the compound in the SEC spin column filtrate (protein fraction) ([1]; protein 0 μM (protein-free reference), compound 250 μM): 253795
- spectral intensity of the compound in the SEC spin column filtrate (protein fraction) ([1]; protein 23.75 μM, compound 1 μM): 501950
- spectral intensity of the compound in the SEC spin column filtrate (protein fraction) ([1]; protein 23.75 μM, compound 10 μM): 137693
- spectral intensity of the compound in the SEC spin column filtrate (protein fraction) ([1]; protein 23.75 μM, compound 100 μM): 181386
- spectral intensity of the compound in the SEC spin column filtrate (protein fraction) ([1]; protein 23.75 μM, compound 250 μM): 308575
- spectral intensity of the compound in the SEC spin column filtrate (protein fraction) ([1]; protein 47.5 μM, compound 1 μM): 58869
- spectral intensity of the compound in the SEC spin column filtrate (protein fraction) ([1]; protein 47.5 μM, compound 10 μM): 178128
- spectral intensity of the compound in the SEC spin column filtrate (protein fraction) ([1]; protein 47.5 μM, compound 100 μM): 2683794
- spectral intensity of the compound in the SEC spin column filtrate (protein fraction) ([1]; protein 47.5 μM, compound 250 μM): 9317332
Compound: Fc1ccc(C(c2ccc(F)cc2)N2CCN(C/C=C/c3ccccc3)CC2)cc1 [Flunarizine]

Compound: Dihydroergotoxine mesylate
- spectral intensity of the compound in the SEC spin column filtrate (protein fraction) ([2]; measured mass range m/z 564.1-565.1, protein 0 μM (protein-free reference), compound 1 μM): 25150786
- spectral intensity of the compound in the SEC spin column filtrate (protein fraction) ([2]; measured mass range m/z 564.1-565.1, protein 0 μM (protein-free reference), compound 10 μM): 29311635
- spectral intensity of the compound in the SEC spin column filtrate (protein fraction) ([2]; measured mass range m/z 564.1-565.1, protein 0 μM (protein-free reference), compound 100 μM): 76261189
- spectral intensity of the compound in the SEC spin column filtrate (protein fraction) ([2]; measured mass range m/z 564.1-565.1, protein 0 μM (protein-free reference), compound 250 μM): 326128137
- spectral intensity of the compound in the SEC spin column filtrate (protein fraction) ([2]; measured mass range m/z 564.1-565.1, protein 23.75 μM, compound 1 μM): 19680823
- spectral intensity of the compound in the SEC spin column filtrate (protein fraction) ([2]; measured mass range m/z 564.1-565.1, protein 23.75 μM, compound 10 μM): 36914079
- spectral intensity of the compound in the SEC spin column filtrate (protein fraction) ([2]; measured mass range m/z 564.1-565.1, protein 23.75 μM, compound 100 μM): 177369018
- spectral intensity of the compound in the SEC spin column filtrate (protein fraction) ([2]; measured mass range m/z 564.1-565.1, protein 23.75 μM, compound 250 μM): 232715490
- spectral intensity of the compound in the SEC spin column filtrate (protein fraction) ([2]; measured mass range m/z 564.1-565.1, protein 47.5 μM, compound 1 μM): 16556794
- spectral intensity of the compound in the SEC spin column filtrate (protein fraction) ([2]; measured mass range m/z 564.1-565.1, protein 47.5 μM, compound 10 μM): 45033425
- spectral intensity of the compound in the SEC spin column filtrate (protein fraction) ([2]; measured mass range m/z 564.1-565.1, protein 47.5 μM, compound 100 μM): 221983211
- spectral intensity of the compound in the SEC spin column filtrate (protein fraction) ([2]; measured mass range m/z 564.1-565.1, protein 47.5 μM, compound 250 μM): 530510575
- spectral intensity of the compound in the SEC spin column filtrate (protein fraction) ([2]; measured mass range m/z 577.9-578.9, protein 0 μM (protein-free reference), compound 1 μM): 17036968
- spectral intensity of the compound in the SEC spin column filtrate (protein fraction) ([2]; measured mass range m/z 577.9-578.9, protein 0 μM (protein-free reference), compound 10 μM): 25343556
- spectral intensity of the compound in the SEC spin column filtrate (protein fraction) ([2]; measured mass range m/z 577.9-578.9, protein 0 μM (protein-free reference), compound 100 μM): 62894601
- spectral intensity of the compound in the SEC spin column filtrate (protein fraction) ([2]; measured mass range m/z 577.9-578.9, protein 0 μM (protein-free reference), compound 250 μM): 234871658
- spectral intensity of the compound in the SEC spin column filtrate (protein fraction) ([2]; measured mass range m/z 577.9-578.9, protein 23.75 μM, compound 1 μM): 25890358
- spectral intensity of the compound in the SEC spin column filtrate (protein fraction) ([2]; measured mass range m/z 577.9-578.9, protein 23.75 μM, compound 100 μM): 421344902
- spectral intensity of the compound in the SEC spin column filtrate (protein fraction) ([2]; measured mass range m/z 577.9-578.9, protein 23.75 μM, compound 250 μM): 408003600
- spectral intensity of the compound in the SEC spin column filtrate (protein fraction) ([2]; measured mass range m/z 577.9-578.9, protein 47.5 μM, compound 1 μM): 31988946
- spectral intensity of the compound in the SEC spin column filtrate (protein fraction) ([2]; measured mass range m/z 577.9-578.9, protein 47.5 μM, compound 10 μM): 207450982
- spectral intensity of the compound in the SEC spin column filtrate (protein fraction) ([2]; measured mass range m/z 577.9-578.9, protein 47.5 μM, compound 100 μM): 908698063
- spectral intensity of the compound in the SEC spin column filtrate (protein fraction) ([2]; measured mass range m/z 577.9-578.9, protein 47.5 μM, compound 250 μM): 1265975868
- spectral intensity of the compound in the SEC spin column filtrate (protein fraction) ([2]; measured mass range m/z 611.7-612.7, protein 0 μM (protein-free reference), compound 1 μM): 18486648
- spectral intensity of the compound in the SEC spin column filtrate (protein fraction) ([2]; measured mass range m/z 611.7-612.7, protein 0 μM (protein-free reference), compound 10 μM): 24024699
- spectral intensity of the compound in the SEC spin column filtrate (protein fraction) ([2]; measured mass range m/z 611.7-612.7, protein 0 μM (protein-free reference), compound 100 μM): 30737736
- spectral intensity of the compound in the SEC spin column filtrate (protein fraction) ([2]; measured mass range m/z 611.7-612.7, protein 0 μM (protein-free reference), compound 250 μM): 58888872
- spectral intensity of the compound in the SEC spin column filtrate (protein fraction) ([2]; measured mass range m/z 611.7-612.7, protein 23.75 μM, compound 1 μM): 35126832
- spectral intensity of the compound in the SEC spin column filtrate (protein fraction) ([2]; measured mass range m/z 611.7-612.7, protein 23.75 μM, compound 10 μM): 106708813
- spectral intensity of the compound in the SEC spin column filtrate (protein fraction) ([2]; measured mass range m/z 611.7-612.7, protein 23.75 μM, compound 100 μM): 397014202
- spectral intensity of the compound in the SEC spin column filtrate (protein fraction) ([2]; measured mass range m/z 611.7-612.7, protein 23.75 μM, compound 250 μM): 267260198
- spectral intensity of the compound in the SEC spin column filtrate (protein fraction) ([2]; measured mass range m/z 611.7-612.7, protein 47.5 μM, compound 1 μM): 40595551
- spectral intensity of the compound in the SEC spin column filtrate (protein fraction) ([2]; measured mass range m/z 611.7-612.7, protein 47.5 μM, compound 10 μM): 194133547
- spectral intensity of the compound in the SEC spin column filtrate (protein fraction) ([2]; measured mass range m/z 611.7-612.7, protein 47.5 μM, compound 100 μM): 931095764
- spectral intensity of the compound in the SEC spin column filtrate (protein fraction) ([2]; measured mass range m/z 611.7-612.7, protein 47.5 μM, compound 250 μM): 1112309560
